Measurements: ChEMBL document CHEMBL3885861, “Open TG-GATES”

Species on record: Rattus norvegicus
Assay: Open TG-GATES - Regimen: Single
Format: toxicity, organism-based, Sprague-Dawley
Design: regimen Single, gender Male, age 6 weeks
Details: in vivo, po, 1000 mg/kg, route gavage, dose level Middle; for APTT / Bas / Eos / Fbg / Hb / Ht / Lym / MCH / MCHC / MCV / Mono / Neu / PT / Plat / RBC / Ret / WBC: tissue Blood; for KIDNEY_L / KIDNEY_R / KIDNEY_TOTAL: tissue Kidney; for LIVER: tissue Liver; for A/G / ALP / ALT / AST / BUN / CRE / Ca / Cl / DBIL / GLC / IP / K / LDH / Na / PL / RALB / TBIL / TC / TG / TP / gamma-GTP: tissue Plasma

Work on COc1ccc(O)c(C(C)(C)C)c1.COc1ccc(O)cc1C(C)(C)C [BUTYLATED HYDROXYANISOLE] yielded a TERMINAL_BW (3 h) of 206 g, an APTT (3 h) of 14.7 s and a Bas (3 h) of 0.2%. It also gave an Eos (3 h) of 0.5%, a Fbg (3 h) of 270.8 mg/dL and a Hb (3 h) of 13.5 g/dL. The Ht (3 h) was 39.4%, the Lym (3 h) was 79.2% and the MCH (3 h) was 20.8 pg. It also gave an MCHC (3 h) of 34.3%, an MCV (3 h) of 60.8 fL and a Mono (3 h) of 1.9%. The Neu (3 h) was 17.3%, the PT (3 h) was 11.6 s and the Plat (3 h) was 142.9 x10_4/uL. It also gave an RBC (3 h) of 649 x10_4/ul, a Ret (3 h) of 7.8% and a WBC (3 h) of 77.2 x10_2/uL. It also gave a KIDNEY_L (3 h) of 0.9 g, a KIDNEY_R (3 h) of 0.9 g and a KIDNEY_TOTAL (3 h) of 1.8 g. The LIVER (3 h) was 8.6 g, the A/G (3 h) was 0.8 and the ALP (3 h) was 1827.4 IU/L. For the same compound, the ALT (3 h) was 53.4 IU/L, the AST (3 h) was 77.8 IU/L and the BUN (3 h) was 10.6 mg/dL. The CRE (3 h) was 0.2 mg/dL, the Ca (3 h) was 11.1 mg/dL and the Cl (3 h) was 103.6 meq/L. The DBIL (3 h) was 0.028 mg/dL, the GLC (3 h) was 179.2 mg/dL and the IP (3 h) was 10.3 mg/dL. The K (3 h) was 3.5 meq/L, the LDH (3 h) was 60.8 IU/L and the Na (3 h) was 142.6 meq/L. The PL (3 h) was 150.6 mg/dL, the RALB (3 h) was 2.6 g/dL and the TBIL (3 h) was 0.084 mg/dL. The TC (3 h) was 85.2 mg/dL, the TG (3 h) was 76.4 mg/dL and the TP (3 h) was 5.8 g/dL. The gamma-GTP (3 h) was 1 IU/L, the TERMINAL_BW (6 h) was 201.1 g and the APTT (6 h) was 15.6 s. It also gave a Bas (6 h) of 0.2%, an Eos (6 h) of 0.8% and a Fbg (6 h) of 279.6 mg/dL. It also gave a Hb (6 h) of 13.9 g/dL, a Ht (6 h) of 40.4% and a Lym (6 h) of 72.6%. It also gave an MCH (6 h) of 21.2 pg, an MCHC (6 h) of 34.3% and an MCV (6 h) of 61.8 fL. For the same compound, the Mono (6 h) was 1.6%, the Neu (6 h) was 24.1% and the PT (6 h) was 12.7 s. It also gave a Plat (6 h) of 136.4 x10_4/uL, an RBC (6 h) of 654.6 x10_4/ul and a Ret (6 h) of 7.3%. It also gave a WBC (6 h) of 78.7 x10_2/uL, a KIDNEY_L (6 h) of 0.9 g and a KIDNEY_R (6 h) of 0.8 g. For the same compound, the KIDNEY_TOTAL (6 h) was 1.7 g, the LIVER (6 h) was 7.5 g and the A/G (6 h) was 0.9. For the same compound, the ALP (6 h) was 1472.6 IU/L, the ALT (6 h) was 49.4 IU/L and the AST (6 h) was 74 IU/L. For the same compound, the BUN (6 h) was 9.6 mg/dL, the CRE (6 h) was 0.2 mg/dL and the Ca (6 h) was 10.9 mg/dL. It also gave a Cl (6 h) of 108.4 meq/L, a DBIL (6 h) of 0.034 mg/dL and a GLC (6 h) of 166 mg/dL. It also gave an IP (6 h) of 9.8 mg/dL, a K (6 h) of 4 meq/L and an LDH (6 h) of 54.8 IU/L. The Na (6 h) was 142.6 meq/L, the PL (6 h) was 139.4 mg/dL and the RALB (6 h) was 2.6 g/dL. The TBIL (6 h) was 0.09 mg/dL, the TC (6 h) was 81.4 mg/dL and the TG (6 h) was 68.6 mg/dL. It also gave a TP (6 h) of 5.7 g/dL, a gamma-GTP (6 h) of 1 IU/L and a TERMINAL_BW (9 h) of 199.9 g. For the same compound, the APTT (9 h) was 16.6 s, the Bas (9 h) was 0.2% and the Eos (9 h) was 0.9%. For the same compound, the Fbg (9 h) was 285 mg/dL, the Hb (9 h) was 13.6 g/dL and the Ht (9 h) was 39.7%. It also gave a Lym (9 h) of 71.9%, an MCH (9 h) of 21.1 pg and an MCHC (9 h) of 34.4%. It also gave an MCV (9 h) of 61.6 fL, a Mono (9 h) of 1.6% and a Neu (9 h) of 24.9%. It also gave a PT (9 h) of 13.2 s, a Plat (9 h) of 138.7 x10_4/uL and an RBC (9 h) of 643.8 x10_4/ul. It also gave a Ret (9 h) of 7.6%, a WBC (9 h) of 65.3 x10_2/uL and a KIDNEY_L (9 h) of 0.9 g. It also gave a KIDNEY_R (9 h) of 0.8 g, a KIDNEY_TOTAL (9 h) of 1.7 g and an LIVER (9 h) of 7.5 g. It also gave an A/G (9 h) of 0.8, an ALP (9 h) of 1561.2 IU/L and an ALT (9 h) of 41.6 IU/L. For the same compound, the AST (9 h) was 72.8 IU/L, the BUN (9 h) was 7.6 mg/dL and the CRE (9 h) was 0.2 mg/dL. The Ca (9 h) was 11 mg/dL, the Cl (9 h) was 107.8 meq/L and the DBIL (9 h) was 0.03 mg/dL. The GLC (9 h) was 154.8 mg/dL, the IP (9 h) was 10.3 mg/dL and the K (9 h) was 4 meq/L. The LDH (9 h) was 51.4 IU/L, the Na (9 h) was 142.8 meq/L and the PL (9 h) was 135.2 mg/dL. For the same compound, the RALB (9 h) was 2.7 g/dL, the TBIL (9 h) was 0.09 mg/dL and the TC (9 h) was 78.2 mg/dL. The TG (9 h) was 44.6 mg/dL, the TP (9 h) was 5.9 g/dL and the gamma-GTP (9 h) was 0.8 IU/L. The TERMINAL_BW (24 h) was 209.5 g, the APTT (24 h) was 16.1 s and the Bas (24 h) was 0.2%. For the same compound, the Eos (24 h) was 0.4%, the Fbg (24 h) was 257 mg/dL and the Hb (24 h) was 13.5 g/dL. It also gave a Ht (24 h) of 39.5%, a Lym (24 h) of 79.9% and an MCH (24 h) of 20.8 pg. For the same compound, the MCHC (24 h) was 34.1%, the MCV (24 h) was 61 fL and the Mono (24 h) was 2.3%. The Neu (24 h) was 16.1%, the PT (24 h) was 12.4 s and the Plat (24 h) was 150.2 x10_4/uL. It also gave an RBC (24 h) of 647.4 x10_4/ul, a Ret (24 h) of 6.3% and a WBC (24 h) of 89 x10_2/uL. The KIDNEY_L (24 h) was 0.9 g, the KIDNEY_R (24 h) was 0.9 g and the KIDNEY_TOTAL (24 h) was 1.9 g. The LIVER (24 h) was 9.4 g, the A/G (24 h) was 0.9 and the ALP (24 h) was 1827.8 IU/L. The ALT (24 h) was 46.2 IU/L, the AST (24 h) was 75.8 IU/L and the BUN (24 h) was 12.4 mg/dL. The CRE (24 h) was 0.2 mg/dL, the Ca (24 h) was 11.4 mg/dL and the Cl (24 h) was 107.8 meq/L. The DBIL (24 h) was 0.046 mg/dL, the GLC (24 h) was 156.4 mg/dL and the IP (24 h) was 8.3 mg/dL. It also gave a K (24 h) of 4.3 meq/L, an LDH (24 h) of 72 IU/L and a Na (24 h) of 142.8 meq/L. The PL (24 h) was 149 mg/dL, the RALB (24 h) was 2.7 g/dL and the TBIL (24 h) was 0.098 mg/dL. The TC (24 h) was 84.2 mg/dL, the TG (24 h) was 236.8 mg/dL and the TP (24 h) was 5.8 g/dL. For the same compound, the gamma-GTP (24 h) was 1 IU/L.
